Laboratory results as given in patent publication US9567380B1, “Microtubule organizing center (MTOC)-inactivating peptides” (THE RESEARCH FOUNDATION FOR THE STATE UNIVERSITY OF NEW YORK, priority 2015, dated 2017).
Entries after “also recorded” stand apart in the source; their conditions may differ. Ends that are not written are not given here.

How the values were obtained:
human γ-TuRC = biological target: T1, human γ-TuRC (Homo sapiens, UniProt P23258+Q9BSJ2); assay: In vitro γ-TuRC microtubule nucleation assay; format: biochemical; conditions: whole-cell extract from human breast cancer cells; final peptide concentration 60 nM
T1 construct: All other samples use whole-cell extract from human breast cancer cells; endogenous in cells; host or cells: human breast cancer cells (whole-cell extract)
T1 sequence (P23258 whole entry): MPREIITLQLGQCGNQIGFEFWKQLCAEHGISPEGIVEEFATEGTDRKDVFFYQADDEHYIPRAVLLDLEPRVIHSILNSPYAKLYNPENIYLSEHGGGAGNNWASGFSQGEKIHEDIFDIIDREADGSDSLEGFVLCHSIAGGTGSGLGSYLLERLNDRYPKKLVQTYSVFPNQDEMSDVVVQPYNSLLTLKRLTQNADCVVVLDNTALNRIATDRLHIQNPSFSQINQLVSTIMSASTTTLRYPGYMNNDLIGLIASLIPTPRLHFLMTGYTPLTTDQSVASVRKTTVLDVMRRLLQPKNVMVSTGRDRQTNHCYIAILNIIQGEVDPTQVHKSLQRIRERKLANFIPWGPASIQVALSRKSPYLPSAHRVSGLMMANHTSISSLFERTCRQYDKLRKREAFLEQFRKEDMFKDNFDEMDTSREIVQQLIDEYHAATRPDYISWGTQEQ
T1 sequence (Q9BSJ2 whole entry): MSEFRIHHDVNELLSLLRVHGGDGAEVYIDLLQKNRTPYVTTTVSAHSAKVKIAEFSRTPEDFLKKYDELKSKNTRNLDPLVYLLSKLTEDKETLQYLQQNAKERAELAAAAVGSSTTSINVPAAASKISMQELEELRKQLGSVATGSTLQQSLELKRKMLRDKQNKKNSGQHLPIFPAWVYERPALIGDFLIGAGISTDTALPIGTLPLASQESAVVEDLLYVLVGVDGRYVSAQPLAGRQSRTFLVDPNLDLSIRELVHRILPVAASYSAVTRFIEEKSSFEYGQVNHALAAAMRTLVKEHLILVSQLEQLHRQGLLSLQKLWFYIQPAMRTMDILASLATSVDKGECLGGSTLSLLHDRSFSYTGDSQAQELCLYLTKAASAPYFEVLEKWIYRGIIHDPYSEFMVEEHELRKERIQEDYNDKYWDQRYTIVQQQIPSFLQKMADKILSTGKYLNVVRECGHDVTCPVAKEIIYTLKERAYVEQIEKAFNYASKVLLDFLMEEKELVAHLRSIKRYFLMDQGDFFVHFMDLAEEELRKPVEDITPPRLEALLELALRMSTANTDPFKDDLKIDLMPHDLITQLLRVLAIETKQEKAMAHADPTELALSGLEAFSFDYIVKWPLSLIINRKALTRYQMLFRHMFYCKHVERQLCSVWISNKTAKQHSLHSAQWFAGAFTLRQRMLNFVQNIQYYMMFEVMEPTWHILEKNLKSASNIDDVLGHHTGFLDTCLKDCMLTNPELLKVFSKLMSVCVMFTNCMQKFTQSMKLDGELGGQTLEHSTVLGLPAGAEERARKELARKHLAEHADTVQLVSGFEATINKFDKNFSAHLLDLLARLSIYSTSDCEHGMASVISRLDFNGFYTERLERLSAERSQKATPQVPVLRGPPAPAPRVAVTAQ
Experimental: In vitro microtubule nucleation assays were performed in a total volume of 5 μL. That is, 3 μL for the sample and 2 μL of tubulin at a 1:5 ratio of Rhodamine:unlabeled tubulin (Cytoskeleton, Inc.). Total tubulin concentration was 3.75 μg/μL in 2.5× tubulin working buffer (2.5×BRB80: 200 mM PIPES, 2.5 mM MgCl2, 2.5 mM EGTA at pH 6.8 and 2.5 mM GTP). For whole cell extract nucleation analysis with peptide, 2 μL of whole cell extract was added with 1 μL of peptide at 300 nM for a final peptide concentration of 60 nM. This 3 μL combination was added first followed by tubulin working buffer. For samples with no peptide, the 5 μL final volume was comprised of 3 μL RIPA buffer and 2 μL of whole cell extract. The 5 μL reaction was combined on ice, quickly spun and returned to ice before incubating in a 37° C. water bath for 4 minutes. Sample incubation was staggered at 20 s intervals to allow for pipetting. After 4 minutes, 50 μL of 1% glutaraldehyde fixing solution was added and tubes were incubated at room temperature for 3 minutes. Samples were completed by addition of 1 mL 1×BRB80, inverting multiple times to mix. […] Images of multiple fields were collected and the average microtubule number per field was determined.

MDA-MB-231 cells = assay: Mitotic arrest after live cell peptide transfection (Chariot) of MDA-MB-231 cells; format: cell-based, human
Experimental: (§1) MCF-7 and MDA-MB-231 (ATCC) cells were maintained in 25 cm^2 tissue culture treated Corning flasks (Sigma-Aldrich) in DMEM complete medium with Glutamax-1 and supplemented with 10% fetal bovine serum. MCF-7 DMEM complete medium was additionally supplemented with 0.01 mg/mL bovine insulin (Sigma-Aldrich). Flasks were maintained at 37° C. in 5% CO2, 95% air, and cells were passaged every 5-7 days using 1 mL TrypLE (Life Technologies).
(§2) For live cell peptide transfection we used the Chariot system (Active Motif) according to the manufacturer's instructions. Cells were seeded into 35 mm tissue culture-treated dishes containing coverslips and grown in complete medium to ˜60% confluency. 1 μg of Kinesin-14 Tail peptide PγTR (GenScript) was diluted in 100 μL 1×PBS on ice. 6 μL of 1/10 PBS-diluted Chariot reagent was further diluted into 100 μL sterile water on ice in a separate tube. Diluted peptide and diluted Chariot were combined and incubated at room temperature for 30 minutes to allow the Chariot-peptide complex to form. Following incubation, media was aspirated from cells, which were then washed once in 1×PBS. The entire 200 μL volume was added to cells in 400 μL serum-free media and gently rocked to ensure even delivery. Plates were returned to 37° C. for 1 hr. Next, DMEM complete growth medium was added to 2 mL without removing the peptide delivery solution (108 μM peptide in 2 mL). Cells were further incubated at 37° C. overnight and fixed after 24 hours.
Human cells were fixed on glass coverslips in −20° C. methanol for 10 minutes, washed with 1×PBS and permeabilized in 0.5% Triton X-100 for 20 minutes. Following further washes, cells were blocked for 30 minutes in 1% bovine serum albumin/knock out serum replacement (BSA/KOSR). […]
(§3) For statistical analysis of phenotypes, n values were chosen as number of cells per strain needed to ensure adequate power to detect significant outcomes. […] For cell cycle arrest by 1 μg transfection of PγTR, 12 fields at 200× were counted. […]

[1] = tested on: human MCF-7 breast cancer cells; assay: Mitotic arrest after live cell peptide transfection (Chariot) of MCF-7 cells; format: cell-based
Experimental: as §1, §2
Human cells were fixed on glass coverslips in −20° C. methanol for 10 minutes, washed with 1×PBS and permeabilized in 0.5% Triton X-100 for 20 minutes. Following further washes, cells were blocked for 30 minutes in 1% bovine serum albumin/knock out serum replacement (BSA/KOSR). For peptide localization to centrosomes, 1 μg/mL of peptide was applied after blocking and before primary antibody application. Antibodies used were primary mouse anti-γ-tubulin monoclonal (1:5,000; Sigma-Aldrich cat. T5326) or primary mouse anti-α-tubulin monoclonal DM1A (1:1,000; Santa Cruz Biotech cat. sc-32293), primary His-tag polyclonal antibody (1:1,000; Cell Signaling cat. 2365), secondary goat anti-mouse Alexa Fluor 488 IgG (1:1,000; Life Technologies cat. A-11001) and secondary goat anti-rabbit Texas Red (1:1,000; Life Technologies cat. T-6391). Antibodies were diluted in 1% BSA/KOSR antibody dilution buffer. […]
as §3

[2] = biological target: human γ-TuRC (centrosome MTOC of human breast cancer cells) (human) (UniProt P23258); assay: cell-based or functional assay
human γ-TuRC (centrosome MTOC of human breast cancer cells) (human), sequence (P23258 whole entry, chain 1 of 2): as the sequence (P23258 whole entry) above
human γ-TuRC (centrosome MTOC of human breast cancer cells) (human), sequence (Q9BSJ2 whole entry, chain 2 of 2, further chain): as the sequence (Q9BSJ2 whole entry) above

| Substance | block of γ-TuRC microtubule nucleation (in words) (human γ-TuRC) | mitotic arrest (in words) (MDA-MB-231 cells; MDA-MB-231 (high aggressiveness), live cell transfection) | share of cells receiving peptide that were arrested in mitosis (MDA-MB-231 cells; MDA-MB-231, 24 h, value in brackets in FIG. 13G legend) [%] | cells arrested in mitosis (MDA-MB-231 cells; MDA-MB-231, 24 h after transfection with 1 μg peptide, arrested peptide-positive cells as percentage of entire population, 12 fields at 200×) [%] | mitotic arrest (in words) ([1]; MCF-7 (low aggressiveness), live cell transfection) | share of cells receiving peptide that were arrested in mitosis ([1]; MCF-7, 24 h, value in brackets in FIG. 13G legend) [%] | cells arrested in mitosis ([1]; MCF-7, 24 h after transfection with 1 μg peptide, arrested peptide-positive cells as percentage of entire population, 12 fields at 200×) [%] | spindle formation by α-tubulin staining ([1]; MCF-7 cells arrested by peptide, live cell transfection) | cells arrested in mitosis 24 hours after transfection, MCF-7 [2] [%] | cells arrested in mitosis 24 hours after transfection, MDA-MB-231 [2] [%] |
| --- | --- | --- | --- | --- | --- | --- | --- | --- | --- | --- |
| YSKFKESAAPQLKDLIGSGAEKDHEYSLQLQ (also: 6-His tag, end not given here) [PγTR, Kinesin-14 Pkl1 Tail peptide, γ-TuRC targeting and regulatory; used 6-His tagged] | potent inhibitor of nucleation; also recorded: blocks the γ-TuRC MTOC nucleation | can mitotically arrest both the MCF-7 low and MDA-MB-231 high aggressive cell lines with similar efficiency | 82 | 22.6 | can mitotically arrest both the MCF-7 low and MDA-MB-231 high aggressive cell lines with similar efficiency | 90 | 39 | No spindle formation |  |  |
| 6-His tagged Kinesin-14 Tail peptide PγTR (γ-TuRC targeting and regulatory peptide) |  |  |  |  |  |  |  |  | 39 | 22.6 |
